From patent US9227971B2, “Pyrazolo[1,5-a]pyrimidine compounds as mTOR inhibitors” (Merck Sharp & Dohme Corp., priority 2010, dated 2016)
pIC50: −log10 of the molar value. Where two headings read alike, the source gives them in different places.

Experiments:
[1] = tested on: phosphorylated AKT Ser473 (pAKT S473), mTORC2 activity, PC3 cells; test: mTOR target engagement assay, immunofluorescent cell-based, pAKT S473 readout (mTORC2 activity); settings: Homo sapiens
Outline: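 After blocking, cells were stained overnight at 4 °C with anti-pAKT S473 antibody, then a fluorescent secondary; inhibition was read as reduced fluorescence intensity.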

[2] = tested on: phosphorylated 4E-BP1 Thr37/46 (p4E-BP1 Thr37/46), mTORC1 activity, PC3 cells; test: mTOR target engagement assay, immunofluorescent cell-based, p4E-BP1 Thr37/46 readout (mTORC1 activity); settings: Homo sapiens
Outline: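 Cell-based immunofluorescence in PC3 cells: serially diluted compounds (0.25% DMSO, 5% FBS) applied for ninety minutes at 37° C before fixation and overnight 4° C staining of p4E-BP1 Thr37/46. Untreated DMSO wells set maximal phosphorylation; IC50 obtained by logistic fitting.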

[3] = PC-3, PC3 cells, compound treatment ninety minutes at 37° C.
[4] = PC-3, PC3 cells, compound treatment ninety minutes at 37° C., read-out: p4E-BP1 Thr37/46 IC50
[5] = PC-3, Table 6-1, PC3 cells, read-out: p4E-BP1 Thr37/46 IC50

| Structure (SMILES) | pIC50 [1, 3] | pIC50 [2, 4] | pIC50 ([1]; PC-3, Table 6-1, PC3 cells) | pIC50 [2, 5] | pIC50 ([2]; PC-3, read-out: p4E-BP1 Thr37/46 IC50) |
| --- | --- | --- | --- | --- | --- |
| Nc1c(CO)c([C@@H]2C[C@H]3CC[C@@H](C2)N3C(=O)c2nnc[nH]2)nc2c(-c3ccc(-c4ccccc4)nc3)cnn12 [Compound 5.7, ((1R,3s,5S)-3-(7-amino-6-(hydroxymethyl)-3-(6-phenylpyridin-3-yl)pyrazolo[1,5-a]pyrimidin-5-yl)-8-azabicyclo[3.2.1]octan-8-yl)(4H-1,2,4-triazol-3-yl)methanone] | 7.00 to 9.00 | 7.00 to 9.00 |  |  |  |
| CCc1c([C@@H]2C[C@H]3CC[C@@H](C2)N3C(=O)c2nnc[nH]2)nc2c(-c3ccc(-c4ccccc4)nc3)cnn2c1N [Compound 5.8, ((1R,3s,5S)-3-(7-amino-6-ethyl-3-(6-phenylpyridin-3-yl)pyrazolo[1,5-a]pyrimidin-5-yl)-8-azabicyclo[3.2.1]octan-8-yl)(4H-1,2,4-triazol-3-yl)methanone] | 7.00 to 9.00 | 7.00 to 9.00 |  |  |  |
| CCc1c([C@@H]2C[C@H]3CC[C@@H](C2)N3C(=O)c2nc(C)n[nH]2)nc2c(-c3ccc(-c4ccccc4)nc3)cnn2c1N [Compound 5.9, ((1R,3s,5S)-3-(7-amino-6-ethyl-3-(6-phenylpyridin-3-yl)pyrazolo[1,5-a]pyrimidin-5-yl)-8-azabicyclo[3.2.1]octan-8-yl)(3-methyl-1H-1,2,4-triazol-5-yl)methanone] | 7.00 to 9.00 | 7.00 to 9.00 |  |  |  |
| Nc1c(C2CC2)c([C@@H]2C[C@H]3CC[C@@H](C2)N3C(=O)CO)nc2c(-c3ccc(-c4ncc[nH]4)nc3)cnn12 [Compound 6.1, 1-((1R,3s,5S)-3-(3-(6-(1H-imidazol-2-yl)pyridin-3-yl)-7-amino-6-cyclopropylpyrazolo [1,5-a]pyrimidin-5-yl)-8-azabicyclo[3.2.1]octan-8-yl)-2-hydroxyethanone] |  |  | 7.00 to 9.00 | 7.00 to 9.00 |  |
| Nc1c(C2CC2)c([C@@H]2C[C@H]3CC[C@@H](C2)N3C(=O)c2nnc[nH]2)nc2c(-c3ccc(-c4ncc[nH]4)nc3)cnn12 [Compound 6.2, ((1R,3s,5S)-3-(3-(6-(1H-imidazol-2-yl)pyridin-3-yl)-7-amino-6-cyclopropylpyrazolo [1,5-a]pyrimidin-5-yl)-8-azabicyclo[3.2.1]octan-8-yl)(4H-1,2,4-triazol-3-yl)methanone] |  |  | 7.00 to 9.00 | 7.00 to 9.00 |  |
| CC(=O)c1c([C@@H]2C[C@H]3CC[C@@H](C2)N3C(=O)CO)nc2c(-c3ccc(-c4ncc[nH]4)nc3)cnn2c1N [Compound 6.3, 1-((1R,3s,5S)-3-(3-(6-(1H-imidazol-2-yl)pyridin-3-yl)-6-acetyl-7-aminopyrazolo[1,5-a]pyrimidin-5-yl)-8-azabicyclo[3.2.1]octan-8-yl)-2-hydroxyethanone] |  |  | 7.00 to 9.00 | 7.00 to 9.00 |  |
| CC(=O)c1c([C@@H]2C[C@H]3CC[C@@H](C2)N3C(=O)c2nnc[nH]2)nc2c(-c3ccc(-c4ncc[nH]4)nc3)cnn2c1N [Compound 6.4, 1-(3-(6-(1H-imidazol-2-yl)pyridin-3-yl)-5-((1R,3s,5S)-8-(4H-1,2,4-triazole-3-carbonyl)-8-azabicyclo[3.2.1]octan-3-yl)-7-aminopyrazolo[1,5-a]pyrimidin-6-yl)ethanone] |  |  | 7.00 to 9.00 | 7.00 to 9.00 |  |
| CCc1c([C@@H]2C[C@H]3CC[C@@H](C2)N3C(=O)CO)nc2c(-c3ccc(-c4ncc[nH]4)nc3)cnn2c1N [Compound 6.5, 1-((1R,3s,5S)-3-(3-(6-(1H-imidazol-2-yl)pyridin-3-yl)-7-amino-6-ethylpyrazolo[1,5-a]pyrimidin-5-yl)-8-azabicyclo[3.2.1]octan-8-yl)-2-hydroxyethanone] |  |  | 7.00 to 9.00 | 7.00 to 9.00 |  |
| CS(=O)(=O)c1c([C@@H]2C[C@H]3CC[C@@H](C2)N3C(=O)CO)nc2c(-c3ccc(-c4ncc[nH]4)nc3)cnn2c1N [Compound 6.6, 1-((1R,3s,5S)-3-(3-(6-(1H-imidazol-2-yl)pyridin-3-yl)-7-amino-6-(methylsulfonyl)pyrazolo [1,5-a]pyrimidin-5-yl)-8-azabicyclo[3.2.1]octan-8-yl)-2-hydroxyethanone] |  |  | 7.00 to 9.00 | 7.00 to 9.00 |  |
| C=C(C)c1c([C@@H]2C[C@H]3CC[C@@H](C2)N3C(=O)CO)nc2c(-c3ccc(-c4ncc[nH]4)nc3)cnn2c1N [Compound 6.7, 1-((1R,3s,5S)-3-(3-(6-(1H-imidazol-2-yl)pyridin-3-yl)-7-amino-6-(prop-1-en-2-yl)pyrazolo[1,5-a]pyrimidin-5-yl)-8-azabicyclo[3.2.1]octan-8-yl)-2-hydroxyethanone] |  |  | 7.00 to 9.00 | 7.00 to 9.00 |  |
| CC(=O)c1c([C@@H]2C[C@H]3CC[C@@H](C2)N3S(C)(=O)=O)nc2c(-c3ccc(-c4ncc[nH]4)nc3)cnn2c1N [Compound 6.10, 1-(3-(6-(1H-imidazol-2-yl)pyridin-3-yl)-7-amino-5-((1R,3s,5S)-8-(methylsulfonyl)-8-azabicyclo[3.2.1]octan-3-yl)pyrazolo[1,5-a]pyrimidin-6-yl)ethanone] |  |  | 7.00 to 9.00 | 7.00 to 9.00 |  |
| CC(=O)c1c([C@@H]2C[C@H]3CC[C@@H](C2)N3C(=O)c2cc[nH]c2)nc2c(-c3ccc(-c4ncc[nH]4)nc3)cnn2c1N [Compound 6.11, 1-(3-(6-(1H-imidazol-2-yl)pyridin-3-yl)-5-((1R,3s,5S)-8-(1H-pyrrole-3-carbonyl)-8-azabicyclo[3.2.1]octan-3-yl)-7-aminopyrazolo[1,5-a]pyrimidin-6-yl)ethanone] |  |  | 7.00 to 9.00 | 7.00 to 9.00 |  |
| CC(=O)c1c([C@@H]2C[C@H]3CC[C@@H](C2)N3C(=O)[C@@H](C)O)nc2c(-c3ccc(-c4ncc[nH]4)nc3)cnn2c1N [Compound 6.12, (R)-1-((1R,3S,5S)-3-(3-(6-(1H-imidazol-2-yl)pyridin-3-yl)-6-acetyl-7-aminopyrazolo[1,5-a]pyrimidin-5-yl)-8-azabicyclo[3.2.1]octan-8-yl)-2-hydroxypropan-1-one] |  |  | 7.00 to 9.00 | 7.00 to 9.00 |  |
| Nc1c(C2CC2)c([C@@H]2C[C@H]3CC[C@@H](C2)N3C(=O)c2cc[nH]c2)nc2c(-c3ccc(-c4ncc[nH]4)nc3)cnn12 [Compound 6.14, ((1R,3s,5S)-3-(3-(6-(1H-imidazol-2-yl)pyridin-3-yl)-7-amino-6-cyclopropylpyrazolo [1,5-a]pyrimidin-5-yl)-8-azabicyclo[3.2.1]octan-8-yl)(1H-pyrrol-3-yl)methanone] |  |  | 7.00 to 9.00 | 6.00 to 7.00 |  |
| CC(=O)c1c([C@@H]2C[C@H]3CC[C@@H](C2)N3C=O)nc2c(-c3ccc(-c4ncc[nH]4)nc3)cnn2c1N [Compound 6.15, (1R,3s,5S)-3-(3-(6-(1H-imidazol-2-yl)pyridin-3-yl)-6-acetyl-7-aminopyrazolo[1,5-a]pyrimidin-5-yl)-8-azabicyclo[3.2.1]octane-8-carbaldehyde] |  |  | 7.00 to 9.00 | 7.00 to 9.00 |  |
| COCC(=O)N1[C@@H]2CC[C@H]1C[C@H](c1nc3c(-c4ccc(-c5ncc[nH]5)nc4)cnn3c(N)c1C(C)=O)C2 [Compound 6.16, 1-((1R,3s,5S)-3-(3-(6-(1H-imidazol-2-yl)pyridin-3-yl)-6-acetyl-7-aminopyrazolo[1,5-a]pyrimidin-5-yl)-8-azabicyclo[3.2.1]octan-8-yl)-2-methoxyethanone] |  |  | 7.00 to 9.00 | 7.00 to 9.00 |  |
| CC(=O)c1c([C@@H]2C[C@H]3CC[C@@H](C2)N3C(C)=O)nc2c(-c3ccc(-c4ncc[nH]4)nc3)cnn2c1N [Compound 6.18, 1-(3-(6-(1H-imidazol-2-yl)pyridin-3-yl)-5-((1R,3s,5S)-8-acetyl-8-azabicyclo[3.2.1]octan-3-yl)-7-aminopyrazolo[1,5-a]pyrimidin-6-yl)ethanone] |  |  | 7.00 to 9.00 | 7.00 to 9.00 |  |
| CC(=O)c1c([C@@H]2C[C@H]3CC[C@@H](C2)N3C(=O)C2CCCO2)nc2c(-c3ccc(-c4ncc[nH]4)nc3)cnn2c1N (stereo partly drawn) [Compound 6.19, 1-(3-(6-(1H-imidazol-2-yl)pyridin-3-yl)-7-amino-5-((1R,3s,5S)-8-(tetrahydrofuran-2-carbonyl)-8-azabicyclo[3.2.1]octan-3-yl)pyrazolo[1,5-a]pyrimidin-6-yl)ethanone] |  |  | 7.00 to 9.00 | 6.00 to 7.00 |  |
| CC(=O)c1c([C@@H]2C[C@H]3CC[C@@H](C2)N3C(=O)c2nnc(N)[nH]2)nc2c(-c3ccc(-c4ncc[nH]4)nc3)cnn2c1N [Compound 6.20, 1-(3-(6-(1H-imidazol-2-yl)pyridin-3-yl)-7-amino-5-((1R,3s,5S)-8-(5-amino-4H-1,2,4-triazole-3-carbonyl)-8-azabicyclo[3.2.1]octan-3-yl)pyrazolo[1,5-a]pyrimidin-6-yl)ethanone] |  |  | 7.00 to 9.00 | 7.00 to 9.00 |  |
| CC(=O)c1c([C@@H]2C[C@H]3CC[C@@H](C2)N3C(=O)c2nnc(C)[nH]2)nc2c(-c3ccc(-c4ncc[nH]4)nc3)cnn2c1N [Compound 6.21, 1-(3-(6-(1H-imidazol-2-yl)pyridin-3-yl)-7-amino-5-((1R,3s,5S)-8-(5-methyl-4H-1,2,4-triazole-3-carbonyl)-8-azabicyclo[3.2.1]octan-3-yl)pyrazolo[1,5-a]pyrimidin-6-yl)ethanone] |  |  | 7.00 to 9.00 | 7.00 to 9.00 |  |
| CC(=O)c1c([C@@H]2C[C@H]3CC[C@@H](C2)N3C(=O)CF)nc2c(-c3ccc(-c4ncc[nH]4)nc3)cnn2c1N [Compound 6.22, 1-((1R,3s,5S)-3-(3-(6-(1H-imidazol-2-yl)pyridin-3-yl)-6-acetyl-7-aminopyrazolo[1,5-a]pyrimidin-5-yl)-8-azabicyclo[3.2.1]octan-8-yl)-2-fluoroethanone] |  |  | 7.00 to 9.00 |  | 7.00 to 9.00 |
